In patent publication US9615503B2, “Method for cultivating sugar cane” (BASF SE, priority 2011, dated 2017):

Test system: sugar cane bud discs
Test: Survival of sugar cane seedlings grown from treated bud discs (greenhouse, then acclimatization)
Assay type: in vivo
Conditions: for Number of surviving seedlings: of 648 planted buds per treatment, bud discs immersed 10 seconds in aqueous solution (pyraclostrobin 1 g/l, fipronil 0.8 g/l, fluxapyroxade 1.2 g/l, thiamethoxam 1.5 g/l), counted after 30 to 45 days greenhouse plus 15 days acclimatization, untreated 211; for Increase of survival rate [%]: relative to untreated buds (211 of 648 surviving), same treatment and concentrations as the number of surviving seedlings
From the text: On an area of 0.1 hectares where sugar cane plants were growing with a distance between the rows of 1.5 m, the top part of the 8 months old sugar cane plants was removed by chopping off with a machete in a height of approximately 2 to 2.5 m. The removed top part was discarded. The below, remaining stalks were removed from the field by cutting them off closely above the ground. The stalks were then cut longitudinally into halves in such a manner that the buds were approximately centralized on the halves. From the stalk halves discs of ca. 2 cm of diameter each containing a bud and a part of the respective node were punched off with a punching machine. For each treatment, 648 bud discs were immersed for 10 seconds into an aqueous solution containing either pyraclostrobin (1 g/l; used as the commercial product Comet® of a concentration of 250 g/l of pyraclostrobin) or fipronil (0.8 g/l; used as the commercial product Regent® of a concentration of 800 g/kg of fipronil) or fluxapyroxade (1.2 g/l; used as the commercial product BAS 700 04F of a concentration of 300 g/l) or thiamethoxam (1.5 g/l; used as the commercial product Actara® 250 WG of a concentration of […]). The treated buds were then each placed in individual pots filled with humid coconut fibers. 648 bud discs stayed untreated for comparative reasons and were directly placed in individual pots filled with humid coconut fibers. The pots were placed in a greenhouse, and seedlings were grown from the planted bud discs at 25 to 35° C. and 70 to 80% humidity. While in the greenhouse, the buds/seedlings were watered sufficiently. 30 to 45 days after having been placed in the greenhouse, the surviving seedlings were transferred in an acclimatization area and kept for 15 days. Thereafter they were counted and then transplanted to a field.

N#Cc1nn(-c2c(Cl)cc(C(F)(F)F)cc2Cl)c(N)c1[S+]([O-])C(F)(F)F (centres unmarked) [Fipronil, fipronil]
Number of surviving seedlings: 236 | Increase of survival rate [%]: 11.8%

Cn1cc(C(=O)Nc2ccccc2-c2cc(F)c(F)c(F)c2)c(C(F)F)n1 [Fluxapyroxade, N-(3′,4′,5′-trifluorobiphenyl-2-yl)-3-difluoromethyl-1-methyl-1H-pyrazole-4-carboxamide]
Number of surviving seedlings: 248 | Increase of survival rate [%]: 17.5%

COC(=O)N(OC)c1ccccc1COc1ccn(-c2ccc(Cl)cc2)n1 [Pyraclostrobin, pyraclostrobin]
Number of surviving seedlings: 391 | Increase of survival rate [%]: 85.3%

CN1COCN(Cc2cnc(Cl)s2)/C1=N\[N+](=O)[O-] [Thiamethoxam, thiamethoxam]
Number of surviving seedlings: 225 | Increase of survival rate [%]: 6.6%
